According to patent US20210002712A1, “PHOSPHATIDIC ACID SENSOR” (NATIONAL UNIVERSITY CORPORATION CHIBA UNIVERSITY, priority 2019, published 2021):

How the values were obtained:
[1] = Lipid overlay assay, other lipids; type: binding; settings: GST-tagged protein 20 nM; 100 pmol lipids
Excerpt: (§1) FIG. 9. Equimolar amounts (100 pmol) of various lipids were spotted onto nitrocellulose membranes as indicated. Acyl chains of these glycerolipids and sphingolipids are C16:0 (Echelon Biosciences).
(§2) FIGS. 10 and 12. The blots were scanned and quantified using ImageJ software. The PA binding activity (spot intensity) of α-Syn-N was set to 100%. Values are presented as the mean±S.D. of three independent experiments. ***P<0.005 versus PA.
(§3) FIG. 27. Equimolar amounts (500 pmol) of 18:1/18:1-PA, 18:1/18:1-PC, 18:1/18:1-PE, 18:1/18:1-PG), 18:1/18:1-PS, 18:1/18:1-PI and 18:1/18:1-PI(4,5)P2 were spotted onto nitrocellulose membranes as indicated and incubated with purified GST-tagged-α-Syn-N(20 nM). Lipid-bound proteins were detected by an anti-GST antibody.
(§4) FIG. 28. The blots were scanned and quantified using ImageJ software. The PA binding activity (spot intensity) of α-Syn-N was set to 100%. Values are presented as the mean±S.D. of three independent experiments. ***P<0.005 versus 18:1/18:1-PA.
(§5) Three hundred picomoles of the indicated lipids were spotted onto a nitrocellulose membrane. Membrane Lipid Strip was also used. The membranes were subjected to blocking with 1% skim milk in Tris-buffered saline, pH 7.4, for 1 h at room temperature. […] Quantitative densitometry was performed using ImageJ software.

[2] = Liposome cosedimentation assay, 18:1/18:1-PA liposomes; type: binding; settings: for PA-binding activity (18:1/18:1-PA liposomes): 6×His-SUMO-tagged protein 2.5 μM, PA 150 μM
Procedure: FIG. 1. A schematic architecture of α-Syn and its deletion mutants. FIG. 2. The purified SUMO-tagged-α-Syn and its deletion mutant protein (2.5 μM) were incubated with 18:1/18:1-PA or 18:1/18:1-PS liposomes (PA or […]: 150 μM) and then separated by ultracentrifugation. SDS-PAGE (15%) was performed and separated proteins were stained with Coomassie Brilliant Blue. The positions of α-Syn and its mutants are indicated with arrow heads. The amounts of protein in the supernatant (S) and precipitant (P) were quantified by densitometry using ImageJ software. Binding activity was calculated as the percentage of the precipitate band intensity compared to the total band intensities. Values are presented as the mean±S.D. of four independent experiments. **P<0.01 versus the 18:1/18:1-PS liposome.
(§6) FIG. 3. The purified SUMO-tagged-α-Syn-N protein (2.5 μM) was incubated with control (PC and Chol alone), 16:0/16:0-PA, 16:0/18:1-PA, 18:1/18:1-PA, or 18:0/18:0-PA liposomes (PA: 150 μM) and then separated by ultracentrifugation. SDS-PAGE (15%) was performed and separated proteins were stained with Coomassie Brilliant Blue. The position of α-Syn-N is indicated with an arrow head.
(§7) FIG. 4. The amounts of protein in the supernatant (S) and precipitant (P) were quantified by densitometry using ImageJ software. Binding activity was calculated as the percentage of the precipitate band intensity compared to the total band intensities. Values are presented as the mean±S.D. of three independent experiments. #P<0.05, ##P<0.01, ###P<0.005 versus the 18:1/18:1-PA-liposome, *P<0.05, ***P<0.005 versus the control liposome.
(§8) FIG. 5. The purified SUMO-tagged-α-Syn protein (0.1 μM) was incubated with 18:1/18:1-PA liposomes of the indicated concentrations (0-20 μM) and then separated by ultracentrifugation. SDS-PAGE (15%) was performed and separated proteins were detected with silver staining. The position of α-Syn-N is indicated with an arrow head.
FIG. 6. The amounts of protein in the precipitant were quantified by densitometry using ImageJ software. Binding activity was calculated as the percentage of the precipitate band intensity compared to the total band intensities (Input). Values are presented as the mean±S.D. of four independent experiments. The Kd was determined using GraphPad Prism 8 (Dissociation-One phase exponential decay).
as §8, with “7.” for “5.”, “18:1/18:1-PA, 18:1/18:1-PS, 18:1/18:1-PI(4,5)P2, 18:1/18:1-PE and d18:1/18:1-C1P” for “18:1/18:1-PA”, “(20” for “of the indicated concentrations (0-20”, “(15%) analysis” for “(15%)”
(§9) FIG. 8. The amounts of protein in the precipitant were quantified by densitometry using ImageJ software. The PA binding activity of α-Syn-N was set to 100%. Values are presented as the mean±S.D. of three independent experiments. ***P<0.005 versus 18:1/18:1-PA liposome.
(§10) The following lipid mixtures were used: the control liposome: Chol (50 mol %) and 16:0/18:1-PC (50 mol %); and the PA liposome: Chol (50 mol %), 16:0/18:1-PC (35 mol %) and each PA species (15 mol %). The combined dried lipid mixture was resuspended in HEPES buffer. Then, the lipid mixture was vortexed for 1 min. Liposome formation was induced by sonication at 75° C. The purified SUMO-tagged α-Syn and its deletion mutants (2.5 μM) were dissolved in HEPES buffer and incubated with the control or PA-containing liposomes at room temperature for 1 h. Then, the samples were centrifuged at 200,000 g at 4° C. for 1 h. The precipitant was dissolved in HEPES buffer. The supernatant and pellet were analyzed by SDS-PAGE followed by Coomassie Brilliant Blue and silver staining. Quantitative densitometry was performed using ImageJ software. Since the lipid forms a bilayer, half of the actual concentration was considered.

[3] = Liposome cosedimentation assay, PI(4,5)P2 liposomes; type: binding; settings: protein 0.1 μM; liposomes 20 μM
Procedure: as §8, with “7.” for “5.”, “18:1/18:1-PA, 18:1/18:1-PS, 18:1/18:1-PI(4,5)P2, 18:1/18:1-PE and d18:1/18:1-C1P” for “18:1/18:1-PA”, “(20” for “of the indicated concentrations (0-20”, “(15%) analysis” for “(15%)”
as §9
as §10, with “Then, the samples were centrifuged at 200,000 g at 4° C. for 1 h. The precipitant was dissolved in HEPES buffer.” left out, “Since the lipid forms a bilayer, half of the actual concentration was considered.” left out

COS-7 cells = assay: Subcellular localization of the sensor without PA-generating enzyme in COS-7 cells; type: cell-based; settings: absence of PA-generating enzyme
Procedure: (§11) FIGS. 13 to 16. […] After 24 h of transfection, the cells were fixed and imaged. Representative data from three independent experiments are shown. Scale bars, 20 μm.
(§12) FIG. 29. Either EGFP alone or EGFP-DGKβ was coexpressed with the DsRed monomer alone, DsRed monomer-Spo20p-PABD or DsRed monomer-PDE4A1-PABD in COS-7 cells as indicated. After 24 h of transfection, the cells were fixed and imaged. Representative data from three independent experiments are shown. Scale bars, 20 μm.
(§13) COS-7 cells were maintained in Dulbecco's modified Eagle's medium supplemented with 10% fetal bovine serum, 100 units/ml penicillin, and 100 μg/ml streptomycin at 37° C. in an atmosphere containing 5% CO2. Cells were transiently transfected using PolyFect reagent as described by the manufacturer.
(§14) The cells were then fixed in 4% paraformaldehyde. The coverslips were mounted using Vectashield. […] Images were acquired using FV-10 ASW software.

[4] = Lipid overlay assay, PA versus LPA and C1P; type: binding; settings: GST-tagged protein 20 nM; 300 pmol lipids
Procedure: FIG. 11. Equimolar amounts (300 pmol) of 18:1/18:1-PA, 18:1-LPA, and d18:1/18:1-C1P were spotted onto nitrocellulose membranes as indicated. The membranes were incubated with purified GST-tagged-α-Syn-N(20 nM). Lipid-bound proteins were detected by an anti-GST antibody.
as §2
Three hundred picomoles of the indicated lipids were spotted onto a nitrocellulose membrane. Membrane Lipid Strip was also used. The membranes were subjected to blocking with 1% skim milk in Tris-buffered saline, pH 7.4, for 1 h at room temperature. After blocking, 10 ml of 3% bovine serum albumin in Tris-buffered saline, pH 7.4, containing purified GST alone or GST-α-Syn-N (final concentration, 20 nM) was added to the membranes. The membranes were then incubated for 1 h at room temperature. Next, the membranes were incubated with an anti-GST antibody, followed by incubation with a peroxidase-conjugated goat anti-rabbit IgG antibody. Finally, lipid-bound proteins were visualized using an ECL Western blotting detection system. Quantitative densitometry was performed using ImageJ software.

EGFP-DGKγ = assay: Colocalization with EGFP-DGKγ in PMA-stimulated COS-7 cells; type: cell-based; settings: 1 μM PMA 30 min
Procedure: FIGS. 19 and 20. […] Representative data from three independent experiments are shown. Scale bars, 20 μm. FIG. 20.
as §13, §14

EGFP-DGKβ = assay: Colocalization with EGFP-DGKβ in COS-7 cells; type: cell-based; settings: 24 h after transfection
Procedure: as §11
FIG. 14. […] FIG. 15. EGFP-DGKβ-WT was coexpressed with DsRed monomer-α-Syn-N in COS-7 cells. […] Representative data from three independent experiments are shown. Scale bars, 20 μm.
as §12, §13, §14

[5] = Lipid overlay assay, PA spot; type: binding; settings: GST-tagged protein 20 nM; 16:0/16:0-glycerolipids, 100 pmol
Excerpt: as §1, §2, §3, §4, §5

[6] = Liposome cosedimentation assay, other PA molecular species; type: binding; settings: protein 2.5 μM; PA 150 μM
Procedure: as §6, §7
The following lipid mixtures were used: the control liposome: Chol (50 mol %) and 16:0/18:1-PC (50 mol %); and the PA liposome: Chol (50 mol %), 16:0/18:1-PC (35 mol %) and each PA species (15 mol %). The combined dried lipid mixture was resuspended in HEPES buffer. Then, the lipid mixture was vortexed for 1 min. Liposome formation was induced by sonication at 75° C. […] The supernatant and pellet were analyzed by SDS-PAGE followed by Coomassie Brilliant Blue and silver staining. Quantitative densitometry was performed using ImageJ software. […]

[7] = Liposome cosedimentation assay, PS liposomes; type: binding; settings: protein 0.1 μM; liposomes 20 μM
Procedure: as §8, with “7.” for “5.”, “18:1/18:1-PA, 18:1/18:1-PS, 18:1/18:1-PI(4,5)P2, 18:1/18:1-PE and d18:1/18:1-C1P” for “18:1/18:1-PA”, “(20” for “of the indicated concentrations (0-20”, “(15%) analysis” for “(15%)”
as §9
as §10, with “Then, the samples were centrifuged at 200,000 g at 4° C. for 1 h. The precipitant was dissolved in HEPES buffer.” left out, “Since the lipid forms a bilayer, half of the actual concentration was considered.” left out

EGFP-PLD2 = assay: Colocalization with EGFP-PLD2 in COS-7 cells; type: cell-based
Procedure: FIGS. 21 and 22. […] Representative data from three independent experiments are shown. Scale bars, 20 μm.
as §13, §14

[8] = Liposome cosedimentation assay, PE and C1P liposomes; type: binding; settings: protein 0.1 μM; liposomes 20 μM
Procedure: as §8, with “7.” for “5.”, “18:1/18:1-PA, 18:1/18:1-PS, 18:1/18:1-PI(4,5)P2, 18:1/18:1-PE and d18:1/18:1-C1P” for “18:1/18:1-PA”, “(20” for “of the indicated concentrations (0-20”, “(15%) analysis” for “(15%)”
as §9
as §10, with “Then, the samples were centrifuged at 200,000 g at 4° C. for 1 h. The precipitant was dissolved in HEPES buffer.” left out, “Since the lipid forms a bilayer, half of the actual concentration was considered.” left out

Myr-AcGFP-DGKζ = assay: Colocalization with Myr-AcGFP-DGKζ in COS-7 cells; type: cell-based; settings: trans Golgi network and plasma membrane
Procedure: FIG. 17. […] After 24 h of transfection, the cells were fixed and imaged. Representative data from three independent experiments are shown. Scale bars, 20 μm.
FIGS. 32 and 33. Either Myr-AcGFP-DGKζ alone or Myr-AcGFP-DGKζ-KD was coexpressed with the DsRed monomer alone or DsRed monomer-Spo20p-PABD in COS-7 cells as indicated. After 24 h of transfection, the cells were fixed and imaged. Representative data from three independent experiments are shown. Scale bars, 20 μm.
as §13, §14

PIP5K1A = assay: Colocalization with EGFP-PIP5K1A in COS-7 cells; type: cell-based
Procedure: as §12, with “23.” for “29.”, “EGFP-PIP5K1A” for “EGFP-DGKβ”, “with either” for “with”, “monomer α-Syn-N” for “monomer-Spo20p-PABD”, “monomer PLCδ1-PHD” for “monomer-PDE4A1-PABD”
FIG. 24. The localization of EGFP-PIP5K1A, DsRed monomer-α-Syn-N and DsRed monomer-PLCδ1-PHD was quantified using ImageJ software.
as §13, §14

Substance | binding to other lipid spots [1] | PA-binding activity (18:1/18:1-PA liposomes) [2] | Kd ([2]; protein 0.1 μM, 18:1/18:1-PA liposomes 0-20 μM, read-out: dissociation constant (Kd) for PA (18:1/18:1-PA)) [µM] | binding to 18:1/18:1-PA liposomes compared with other acidic glycerolipids ([2]; protein 0.1 μM, liposomes 20 μM) | binding to PI(4,5)P2 liposomes [3] | subcellular localization (COS-7 cells) | binding of PA relative to LPA and C1P [4] | colocalization with EGFP-DGKγ at the plasma membrane (EGFP-DGKγ) | colocalization with EGFP-DGKβ (EGFP-DGKβ) | binding to PA spot [5] | binding to 16:0/16:0- and 16:0/18:1-PA liposomes [6] | binding to PS liposomes [7] | colocalization with EGFP-PLD2 (EGFP-PLD2) | binding to PE or C1P liposomes [8] | colocalization with Myr-AcGFP-DGKζ (Myr-AcGFP-DGKζ) | colocalization with EGFP-PIP5K1A (PIP5K1A)
α-Syn-N: N-terminal region of mouse α-synuclein (Met1-Lys60), SEQ ID NO: 2; used 6×His-SUMO-, GST- or DsRed monomer-tagged | only weak or no signals were detected | most strongly bound | 6.6 | most strongly bound | only weak signals were detected | broad distribution in the cytoplasm and the nucleus | significantly stronger binding | markedly colocalized | clearly colocalized | most strongly bound | considerably interacted | no signals were observed | clearly colocalized | did not substantially interact | markedly colocalized | did not codistribute
α-Syn-NAC-C: NAC and C deletion mutant of α-Syn (Glu61-Ala140), 6×His-SUMO-tagged | – | failed to show substantial PA-binding activity | – | – | – | – | – | – | – | – | – | – | – | – | – | –
α-Syn-NAC: non-amyloid-β-component deletion mutant of α-Syn (Glu61-Val95), 6×His-SUMO-tagged | – | failed to show substantial PA-binding activity | – | – | – | – | – | – | – | – | – | – | – | – | – | –
